Structures are written as SMILES.

Usually Emax stands for the size of the effect at its maximum, as opposed to the concentration needed.

In one assay the target is T1, human β3 adrenergic receptor (Homo sapiens, UniProt P13945).
T1 construct: expressed in transfected cells
T1 sequence (P13945 whole entry): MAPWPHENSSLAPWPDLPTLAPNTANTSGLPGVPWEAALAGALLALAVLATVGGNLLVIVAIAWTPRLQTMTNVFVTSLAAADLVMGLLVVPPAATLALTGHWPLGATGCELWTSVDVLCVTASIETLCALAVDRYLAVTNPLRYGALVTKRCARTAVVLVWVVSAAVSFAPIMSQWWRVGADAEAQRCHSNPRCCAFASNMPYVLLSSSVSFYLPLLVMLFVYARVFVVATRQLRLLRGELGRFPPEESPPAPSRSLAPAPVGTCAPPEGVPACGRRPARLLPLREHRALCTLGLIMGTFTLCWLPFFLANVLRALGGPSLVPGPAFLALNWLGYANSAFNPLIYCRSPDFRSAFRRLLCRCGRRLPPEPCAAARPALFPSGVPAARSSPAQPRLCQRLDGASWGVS
Briefly: whole cell receptor coupled c-AMP assay (Emax relative to isoproterenol). Format: cell-based. The conditions noted are these: % intrinsic activity relative to isoproterenol; transfected CHO cells. In a few lines: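 Stably transfected CHO DXB-11 cells expressing human β3 receptor incubated 20 min at 37 °C with compound in HBSS/HEPES pH 7.4 containing 1 mM IBMX. cAMP measured by SPA; four-parameter logistic fit, Emax = maximal response as % of isoproterenol maximum.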
`C[C@@H](Cc1c[nH]c2c(F)cc(F)cc12)NC[C@H](O)COc1ccccc1-c1cccs1` [Example 194] registered an Emax of 25.6%.

The same assay, now with this note: % intrinsic activity: maximal response divided by isoproterenol maximal response times 100; transfected CHO cells; average of at least 3 runs.
Take `CC(C)(Cc1c[nH]c2c(C(=O)O)cccc12)NC[C@H](O)COc1ccccc1-c1ccc(S(N)(=O)=O)s1` [Example 54]: the “Emax (%) ± SEM” value came to 79.0 ± 3.5%.

As to `CC(C)(Cc1c[nH]c2ccccc12)NC[C@H](O)COc1ccccc1-c1ccc(S(N)(=O)=O)s1` [Example 191], the “Emax (%) ± SEM” value amounted to 85.6 ± 7.8%.

Regarding `CC(C)(Cc1c[nH]c2c(OCC#N)cccc12)NC[C@H](O)COc1ccccc1-c1cccs1` [Example 137], the “Emax (%) ± SEM” value was 65.5 ± 4.7%.

As to `CC(C)(Cc1c[nH]c2c(-c3cccs3)cccc12)NC[C@H](O)COc1ccccc1-c1ccon1` [Example 109], the “Emax (%) ± SEM” value is given as 68.0 ± 4.1%.

On to `CC(C)(Cc1c[nH]c2c(OCC#N)cccc12)NC[C@H](O)COc1ccccc1-c1csc(C#N)c1.O=C(O)C(F)(F)F` [Example 16], for which the “Emax (%) ± SEM” value is 54.2 ± 2.2%.

For `CC(C)(Cc1c[nH]c2ccccc12)NC[C@H](O)COc1ccccc1-n1ccc(C#N)c1` [Example 35], the “Emax (%) ± SEM” value was 50.3 ± 2.2%.

Consider `CC(C)(Cc1c[nH]c2ccccc12)NC[C@H](O)COc1ccccc1-c1nncs1` [Example 82], for which the “Emax (%) ± SEM” value is 45.5 ± 3.5%.

With `CC(C)(Cc1c[nH]c2c(-c3cccs3)cccc12)NC[C@H](O)COc1ccccc1-c1cccs1` [Example 108], the “Emax (%) ± SEM” value was 71.5 ± 7.9%.

Staying with this assay, now noted: CHO, % intrinsic activity: maximal response divided by isoproterenol maximal response times 100; transfected CHO cells; average of at least 3 runs.
The compound `CC(C)(Cc1c[nH]c2c(Oc3ccc(C(=O)O)cn3)cccc12)NC[C@H](O)COc1ccccc1-c1ccon1` [Example 244] registered an Emax of 77 ± 2.1%.

`CC(C)(Cc1c[nH]c2cccc(C(=O)O)c12)NC[C@H](O)COc1ccccc1-c1cccs1` [Example 238]: the Emax is under 10%.

In the case of `C[C@H](Cn1ccc2c(OCC(=O)O)cccc21)NC[C@H](O)COc1ccccc1-c1ccns1` [Example 235], the Emax worked out at 76.7 ± 4.4%.

For the origin of these results see patent US7208505B2, “β3 adrenergic agonists” (Eli Lilly and Company, priority 2001, dated 2007).
